Laboratory results: the supplement of paper PMC11061612

Key:
Capivasertib = compound: C1CN(CCC1(C(=O)N[C@@H](CCO)C2=CC=C(C=C2)Cl)N)C3=NC=NC4=C3C=CN4 [Capivasertib]; conditions: max 10 µM
Outline: (§1)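 In 1536-well plates, cancer cell lines in 7.5 μl DMEM/F12 or RPMI with 10% FBS spent 24 hours at 37°C and 5% CO2 and were then dosed for 72 hours with final DMSO typically 0.2%. Viability was read by CellTiter-Glo 2.0 luminescence and scaled between blank-well and DMSO-well means. The single-agent IC50 was fitted from dose responses using a logistic curve in a non-linear mixed effects model, and that logistic curve had two parameters.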

AZD1775 = compound: C=CCn1c(=O)c2cnc(Nc3ccc(N4CCN(C)CC4)cc3)nc2n1-c1cccc(C(C)(C)O)n1 [AZD1775]; conditions: max 3 µM
Outline: as §1

Trametinib = compound: CC(=O)Nc1cccc(-n2c(=O)n(C3CC3)c(=O)c3c(Nc4ccc(I)cc4F)n(C)c(=O)c(C)c32)c1 [Trametinib]; conditions: max 1 µM
Outline: as §1

Palbociclib = compound: CC(=O)c1c(C)c2cnc(Nc3ccc(N4CCNCC4)cn3)nc2n(C2CCCC2)c1=O [Palbociclib]; conditions: max 10 µM
Outline: as §1

AZD1390 = compound: CC(C)n1c(=O)n(C)c2cnc3cc(F)c(-c4ccc(OCCCN5CCCCC5)nc4)cc3c21 [AZD1390]; conditions: max 0.3 µM
Outline: as §1

Venetoclax = compound: CC1(C)CCC(CN2CCN(c3ccc(C(=O)NS(=O)(=O)c4ccc(NCC5CCOCC5)c([N+](=O)[O-])c4)c(Oc4cnc5[nH]ccc5c4)c3)CC2)=C(c2ccc(Cl)cc2)C1 [Venetoclax]; conditions: max 1 µM
Outline: as §1

Dasatinib = compound: CC1=C(C(=CC=C1)Cl)NC(=O)C2=CN=C(S2)NC3=CC(=NC(=N3)C)N4CCN(CC4)CCO [Dasatinib]; conditions: max 2 µM
Outline: as §1

SG3199 = compound: CC1=CN2[C@@H](C1)C=NC3=CC(=C(C=C3C2=O)OC)OCCCCCOC4=C(C=C5C(=C4)N=C[C@@H]6CC(=CN6C5=O)C)OC [SG3199]; conditions: max 0.001 µM
Outline: as §1

AZD2811 = compound: CCN(CCO)CCCOc1ccc2c(Nc3cc(CC(=O)Nc4cccc(F)c4)[nH]n3)ncnc2c1 [AZD2811]; conditions: max 1 µM
Outline: as §1

SN-38 = compound: CCc1c2c(nc3ccc(O)cc13)-c1cc3c(c(=O)n1C2)COC(=O)[C@]3(O)CC [SN-38]; conditions: max 0.3 µM
Outline: as §1

AZD0156 = compound: CN(C)CCCOc1ccc(-c2ccc3ncc4c(c3c2)n(C2CCOCC2)c(=O)n4C)cn1 [AZD0156]; conditions: max 3 µM
Outline: as §1

AZD4320 = compound: CN(CC[C@H](CSC1=CC=CC=C1)NC2=C(C=C(C=C2)S(=O)(=O)NC(=O)C3=CC=C(C=C3)N4CCC(CC4)[C@H](C5=CC=CC=C5C6=CC=C(C=C6)Cl)O)S(=O)(=O)C(F)(F)F)CCO [AZD4320]; conditions: max 1 µM
Outline: as §1

Alisertib = compound: COc1cc(Nc2ncc3c(n2)-c2ccc(Cl)cc2C(c2c(F)cccc2OC)=NC3)ccc1C(=O)O [Alisertib]; conditions: max 10 µM
Outline: as §1

Gefitinib = compound: COc1cc2ncnc(Nc3ccc(F)c(Cl)c3)c2cc1OCCCN1CCOCC1 [Gefitinib]; conditions: max 10 µM
Outline: as §1

Prexasertib = compound: COc1cccc(OCCCN)c1-c1cc(Nc2cnc(C#N)cn2)n[nH]1 [Prexasertib]; conditions: max 1 µM
Outline: as §1

Doxorubicin = compound: COc1cccc2c1C(=O)c1c(O)c3c(c(O)c1C2=O)C[C@@](O)(C(=O)CO)C[C@@H]3O[C@H]1C[C@H](N)[C@H](O)[C@H](C)O1 [Doxorubicin]; conditions: max 1 µM
Outline: as §1

AZD5153 = compound: COc1nnc2ccc(N3CCC(c4ccc(OCCN5CCN(C)C(=O)[C@H]5C)cc4)CC3)nn12 [AZD5153]; conditions: max 1 µM
Outline: as §1

Lapatinib = compound: CS(=O)(=O)CCNCc1ccc(-c2ccc3ncnc(Nc4ccc(OCc5cccc(F)c5)c(Cl)c4)c3c2)o1 [Lapatinib]; conditions: max 10 µM
Outline: as §1

AZD8186 = compound: C[C@@H](Nc1cc(F)cc(F)c1)c1cc(C(=O)N(C)C)cc2c(=O)cc(N3CCOCC3)oc12 [AZD8186]; conditions: max 3 µM
Outline: as §1

Crizotinib = compound: C[C@@H](Oc1cc(-c2cnn(C3CCNCC3)c2)cnc1N)c1c(Cl)ccc(F)c1Cl [Crizotinib]; conditions: max 10 µM
Outline: as §1

Savolitinib = compound: C[C@@H](c1ccc2nccn2c1)n1nnc2ncc(-c3cnn(C)c3)nc21 [Savolitinib]; conditions: max 1 µM
Outline: as §1

AZD6738 = compound: C[C@@H]1COCCN1C2=NC(=NC(=C2)C3(CC3)[S@](=N)(=O)C)C4=C5C=CNC5=NC=C4 [AZD6738]; conditions: max 10 µM
Outline: as §1

AZD5991 = compound: Cc1c2c(nn1C)CSCc1cc(n(C)n1)CSc1cc(c3ccccc3c1)OCCCc1c(C(=O)O)n(C)c3c-2c(Cl)ccc13 [AZD5991]; conditions: max 1 µM
Outline: as §1

AZD7648 = compound: Cc1cc2ncnn2cc1Nc1ncc2c(n1)n(C1CCOCC1)c(=O)n2C [AZD7648]; conditions: max 10 µM
Outline: as §1

Taselisib = compound: Cc1nc(-c2cn3c(n2)-c2ccc(-c4cnn(C(C)(C)C(N)=O)c4)cc2OCC3)n(C(C)C)n1 [Taselisib]; conditions: max 10 µM
Outline: as §1

Selumetinib = compound: Cn1cnc2c(F)c(Nc3ccc(Br)cc3Cl)c(C(=O)NOCCO)cc21 [Selumetinib]; conditions: max 10 µM
Outline: as §1

Olaparib = compound: O=C(c1cc(Cc2n[nH]c(=O)c3ccccc23)ccc1F)N1CCN(C(=O)C2CC2)CC1 [Olaparib]; conditions: max 10 µM
Outline: as §1

MK-2206 = compound: NC1(c2ccc(-c3nc4ccn5c(=O)[nH]nc5c4cc3-c3ccccc3)cc2)CCC1 [MK-2206]; conditions: max 10 µM
Outline: as §1

Cell Line	IC50, cell viability 72 h (Capivasertib)	IC50, cell viability 72 h (AZD1775)	IC50, cell viability 72 h (Trametinib)	IC50, cell viability 72 h (Palbociclib)	IC50, cell viability 72 h (AZD1390)	IC50, cell viability 72 h (Venetoclax)	IC50, cell viability 72 h (Dasatinib)	IC50, cell viability 72 h (SG3199)	IC50, cell viability 72 h (AZD2811)	IC50, cell viability 72 h (SN-38)	IC50, cell viability 72 h (AZD0156)	IC50, cell viability 72 h (AZD4320)	IC50, cell viability 72 h (Alisertib)	IC50, cell viability 72 h (Gefitinib)	IC50, cell viability 72 h (Prexasertib)	IC50, cell viability 72 h (Doxorubicin)	IC50, cell viability 72 h (AZD5153)	IC50, cell viability 72 h (Lapatinib)	IC50, cell viability 72 h (AZD8186)	IC50, cell viability 72 h (Crizotinib)	IC50, cell viability 72 h (Savolitinib)	IC50, cell viability 72 h (AZD6738)	IC50, cell viability 72 h (AZD5991)	IC50, cell viability 72 h (AZD7648)	IC50, cell viability 72 h (Taselisib)	IC50, cell viability 72 h (Selumetinib)	IC50, cell viability 72 h (Olaparib)	IC50, cell viability 72 h (MK-2206)
KYSE-140 (Esophageal Squamous Cell Carcinoma)	1660 nM	423 nM	858 nM	> 10 µM	> 300 nM	> 1000 nM	1230 nM	> 1 nM	> 1000 nM	> 300 nM	> 3000 nM	> 1000 nM	> 10 µM	1.93 µM	12 nM	> 1000 nM	827 nM	7.25 µM	> 3000 nM	> 10 µM	> 1000 nM	0.66 µM	> 1000 nM	> 10 µM	1130 nM	> 10 µM	> 10 µM	
LS-411N (Colorectal Carcinoma)	7040 nM	412 nM	44.7 nM	> 10 µM	> 300 nM	> 1000 nM	> 2000 nM	> 1 nM	> 1000 nM	> 300 nM	> 3000 nM	> 1000 nM	> 10 µM	> 10 µM	42.4 nM	> 1000 nM	169 nM	> 10 µM	> 3000 nM	> 10 µM	> 1000 nM	4.06 µM	> 1000 nM	> 10 µM	> 10000 nM	1.34 µM	> 10 µM	> 10 µM
NCI-H716 (Colorectal Carcinoma)	> 10000 nM	1600 nM	> 1000 nM	> 10 µM	> 300 nM	> 1000 nM	> 2000 nM	> 1 nM	> 1000 nM	> 300 nM	> 3000 nM	> 1000 nM	2.23 µM	> 10 µM	181 nM	> 1000 nM	775 nM	> 10 µM	> 3000 nM	> 10 µM	> 1000 nM	> 10 µM	> 1000 nM	> 10 µM	> 10000 nM	> 10 µM	> 10 µM	
NCI-H2228 (Lung Adenocarcinoma)	> 10000 nM	2870 nM	955 nM	> 10 µM	> 300 nM	> 1000 nM	> 2000 nM	> 1 nM	> 1000 nM	82.4 nM	> 3000 nM	> 1000 nM	8.94 µM	> 10 µM	182 nM	557 nM	> 1000 nM	> 10 µM	> 3000 nM	5.48 µM	> 1000 nM	> 10 µM	> 1000 nM	> 10 µM	2010 nM	> 10 µM	> 10 µM	
OACp4C (Esophageal Adenocarcinoma)	1630 nM	342 nM	56.8 nM	> 10 µM	> 300 nM	> 1000 nM	180 nM	> 1 nM	618 nM	104 nM	> 3000 nM	117 nM	1.9 µM	> 10 µM	116 nM	323 nM	695 nM	2.12 µM	> 3000 nM	3.56 µM	> 1000 nM	3.03 µM	> 1000 nM	> 10 µM	93.1 nM	5.81 µM	> 10 µM	
RH-41 (Rhabdomyosarcoma)	314 nM	729 nM	> 1000 nM	> 10 µM	> 300 nM	> 1000 nM	> 2000 nM	> 1 nM	> 1000 nM	57 nM	> 3000 nM	87 nM	3.43 µM	> 10 µM	23.1 nM	476 nM	96.8 nM	> 10 µM	> 3000 nM	1.98 µM	> 1000 nM	4.12 µM	88.5 nM	> 10 µM	93.1 nM	> 10 µM	> 10 µM	
huH-1 (Hepatocellular Carcinoma)	> 10000 nM	2520 nM	> 1000 nM	> 10 µM	> 300 nM	> 1000 nM	> 2000 nM	> 1 nM	> 1000 nM	68 nM	> 3000 nM	> 1000 nM	> 10 µM	> 10 µM	93 nM	> 1000 nM	> 1000 nM	> 10 µM	> 3000 nM	> 10 µM	> 1000 nM	5.64 µM	> 1000 nM	> 10 µM	> 10000 nM	> 10 µM	> 10 µM	
